16 compounds from US8809333B2, “Imidazole, pyrazole, and triazole derivatives useful as antibacterial agents” (Pfizer Inc., priority 2011, dated 2014) can be followed below.

Converted amounts (≈) assume the structure as drawn. Where two headings read alike, the source gives them in different places.

In experiment [1] the target is T1, Pseudomonas aeruginosa LpxC enzyme (Pseudomonas aeruginosa, UniProt P47205).
T1 construct: made in house; host or cells: E. coli
T1 sequence (P47205 1-303): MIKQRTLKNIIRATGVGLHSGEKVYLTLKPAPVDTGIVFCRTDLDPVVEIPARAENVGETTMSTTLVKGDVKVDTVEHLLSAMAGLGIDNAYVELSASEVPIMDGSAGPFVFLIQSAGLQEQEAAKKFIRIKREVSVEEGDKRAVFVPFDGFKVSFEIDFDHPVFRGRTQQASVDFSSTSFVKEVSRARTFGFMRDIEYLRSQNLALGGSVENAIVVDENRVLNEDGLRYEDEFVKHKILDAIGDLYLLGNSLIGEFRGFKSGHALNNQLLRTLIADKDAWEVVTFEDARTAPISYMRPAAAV
In words: IC50 assay, LpxC enzyme from P. aeruginosa (BioTrove RapidFire mass spectrometry). Format: biochemical. As to the method:
In order to assess the compounds biological activity, selected in-vitro assays were conducted on selected compounds of Formula I. One of the assays measured the compounds ability to disrupt the synthesis of lipopolysaccharide, LPS, which is a component of the outer membrane of Gram-negative bacteria. Disruption of this synthesis is lethal to the bacteria. The assay determined the compound's ability to inhibit LpxC, which is the first enzyme in the biosynthetic pathway for LPS (measured as IC50). Additionally, MICs (minimal inhibitory concentrations) were determined for several bacteria. The specific protocols are described below:
A) IC50 Assay, LpxC Enzyme from P. Aeruginosa Labeled as PA LpxC Enzyme IC50):
At the end of 1 hour, 5 ul of 1 N HCl was added to stop the enzyme reaction, the plates were centrifuged, and then processed with the BioTrove Rapidfire HTMS Mass Spectrometry System. A no-enzyme control was used in calculating the IC50 values from the percent conversion values.

The test system of experiment [2] is Escherichia coli EC-1: VOGEL, mouse virulent. Description: MIC determination (CLSI), EC-1. The format is cell-based. The note with it: Escherichia coli, read-out: EC-1 (MIC). As to the method: (§1) The in vitro antibacterial activity of compounds described in the Examples was evaluated by minimum inhibitory concentration (MIC) testing according to Clinical and Laboratory Standards Institute (CLSI) Guidelines. See: Clinical and Laboratory Standards Institute. Methods for Dilution Antimicrobial Susceptibility Tests for Bacteria that Grow Aerobically; Approved Standard-Eighth Edition. CLSI document M7-A8 [ISBN 1-56238-689-1]. Clinical and Laboratory Standards Institute, 940 West Valley Road, Suite 1400, Wayne, Pa. 19087-1898 USA, 2006; also Clinical and Laboratory Standards Institute. Performance Standards for Antimicrobial Susceptibility Testing; Twentieth Informational Supplement. CLSI document M100-S20 [ISBN1-56238-716-2]. Clinical and Laboratory Standards Institute.
(§2) The MIC determination is a standard laboratory method for evaluating the antibacterial activity of a compound. The MIC represents the lowest drug concentration that inhibits visible growth of bacteria following overnight incubation. […] Typically, the drug concentration range is broken down into 2-fold increments (e.g. 0.06 μg/mL, 0.12 μg/mL. 0.25 μg/mL, 0.50 μg/mL, 1.0 μg/mL, etc.) and the various drug concentrations are all individually incubated overnight with approximately the same number of bacteria. The MIC is then determined by visually inspecting the drug effect at each concentration, and identifying the lowest drug concentration that has inhibited bacterial growth as compared to the drug free control. Typically, bacteria continue to grow at drug concentrations lower than the MIC and don't grow at concentrations at and above the MIC.
(§3) The MIC values described in Tables 2 and 3 below were derived from assays wherein each test compound was evaluated in duplicate. In cases where the duplicate values varied by 0-2-fold, the lower of the two values was reported below. Generally speaking, if the duplicate values varied by more than 2-fold, the assay was considered non-valid and was repeated until the variation between duplicate runs was ≦2-fold. In line with the CLSI guidelines referred to above, both control organisms and reference compounds were utilized in each MIC assay to provide proper quality control. MIC values generated with these control organisms and reference compounds were required to fall within a defined range for the assay to be considered valid and be included herein. Those skilled in the art will recognize that MIC values can and do vary from experiment to experiment. Generally speaking, it should be recognized that MIC values often vary +/−2-fold from experiment to experiment. While a single MIC is reported for each compound and each microorganism, the reader should not conclude that each compound was only tested once. Several of the compounds were subjected to multiple tests. The data reported in Tables 2 and 3 is reflective of the compounds relative activity and different MICs may have been generated on these occasions in line with the guidelines described above.
(§4) The following bacterial strains were used in these MIC determinations:
(2) Escherichia coli EC-1: VOGEL, mouse virulent labeled as EC-1 in Table 5;

Experiment [3] deals with Acinetobacter baumannii/haemolyticus: Multidrug-resistant clinical isolate (AB-3167). In words: MIC determination (CLSI), AB-3167. The format is cell-based. As to conditions: Acinetobacter baumannii/haemolyticus multidrug-resistant clinical isolate; overnight incubation; lower of duplicate values; read-out: AB-3167 (MIC). As to the method: as §1, §2, §3, §4
(1) Acinetobacter baumannii/haemolyticus: Multidrug-resistant clinical isolate labeled as AB-3167 in Table 5;

Experiment [4] has as its system Pseudomonas aeruginosa UI-18: Wild-type (PA-7). Description: MIC determination (CLSI), PA-7. Format: cell-based. As to conditions: Pseudomonas aeruginosa UI-18 wild-type; overnight incubation; lower of duplicate values; read-out: PA-7 (MIC). As to the method: as §1, §2, §3, §4
(4) Pseudomonas aeruginosa UI-18: Wild-type, labeled as PA-7 in Table 5;

Experiment [5] deals with Klebsiella pneumoniae: Ciprofloxacin-resistant isolate, expresses ESBL, clinical isolate (KP-3700). In words: MIC determination (CLSI), KP-3700. Format: cell-based. The note with it: overnight incubation, lower of duplicate values. As to the method:
as §1, §2, §3, §4
(3) Klebsiella pneumoniae: Ciprofloxacin-resistant isolate, expresses extended-spectrum beta-lactamases (ESBL), clinical isolate, labeled as KP-3700 in Table 5.

Setting [6] is: P. aeruginosa LpxC enzyme 0.1 nM, 25° C., 1 hour, pH 8.0, read-out: PA: IC50.

Take `CC(CCn1cc(-c2cccc(-c3cc[nH]n3)c2)cn1)(C(=O)NO)S(C)(=O)=O` (stereo not shown) [Example 71, N-hydroxy-2-methyl-2-(methylsulfonyl)-4-{4-[3-(1H-pyrazol-3-yl)phenyl]-1H-pyrazol-1-yl}butanamide]: the IC50 in experiment [1] (setting [6]) amounted to 5.12 nM. The MIC in experiment [2], in experiment [3] and in experiment [4] was more than 64 µg/mL each time. Further, the “KP-3700 (MIC)” value in experiment [5] is more than 64.0 µg/mL.
For `Cc1cnn(CC[C@](C)(C(=O)NO)S(C)(=O)=O)c1` [Example 5, (2R)—N-hydroxy-2-methyl-4-(4-methyl-1H-pyrazol-1-yl)-2-(methylsulfonyl)butanamide], in experiment [1] (setting [6]), the IC50 is more than 100 nM. Also, the MIC is more than 64 µg/mL in experiment [2], more than 64 µg/mL in experiment [3] and 32 µg/mL (≈ 116 µM) in experiment [4]. Also, the “KP-3700 (MIC)” value in experiment [5] is more than 64.0 µg/mL.
`CC(CCn1cc(-c2ccc3cnc(N)cc3c2)cn1)(C(=O)NO)S(C)(=O)=O` (stereo not shown) [Example 69, 4-[4-(3-aminoisoquinolin-6-yl)-1H-pyrazol-1-yl]-N-hydroxy-2-methyl-2-(methylsulfonyl)butanamide]: the IC50 in experiment [1] (setting [6]) was determined as 2.57 nM. In addition, the MIC in experiment [2], in experiment [3] and in experiment [4] was more than 64 µg/mL throughout. Also, the “KP-3700 (MIC)” value in experiment [5] was more than 64.0 µg/mL.
`CC(CCn1cc(-c2ccccc2)cn1)(C(=O)NO)S(C)(=O)=O` (stereo not shown) [Example 40, N-hydroxy-2-methyl-2-(methylsulfonyl)-4-(4-phenyl-1H-pyrazol-1-yl)butanamide] gave a half-maximal inhibitory concentration (IC50) in experiment [1] of 4.63 nM. Further, the MIC in experiment [2] was 32 µg/mL (≈ 94.8 µM); in experiment [3] it was more than 64 µg/mL; in experiment [4], 2 µg/mL (≈ 5.93 µM). In experiment [5], the “KP-3700 (MIC)” value was more than 64.0 µg/mL.
`CC(CCn1cc(-c2cccc(OC(F)(F)F)c2)cn1)(C(=O)NO)S(C)(=O)=O` (stereo not shown) [Example 88, N-hydroxy-2-methyl-2-(methylsulfonyl)-4-{4-[3-(trifluoromethoxy)phenyl]-1H-pyrazol-1-yl}butanamide]: in experiment [1] (setting [6]), the IC50 amounted to 0.652 nM. The MIC in experiment [2] stood at 32 µg/mL (≈ 75.9 µM); in experiment [3], 64 µg/mL (≈ 152 µM); in experiment [4] it was 8 µg/mL (≈ 19 µM). Moreover, the “KP-3700 (MIC)” value in experiment [5] is more than 64.0 µg/mL.
Turning to `CC(CCn1cc(COc2ccc3ccccc3c2)nn1)(C(=O)NO)S(C)(=O)=O` (stereo not shown) [Example 30, N-hydroxy-2-methyl-2-(methylsulfonyl)-4-{4-[(naphthalen-2-yloxy)methyl]-1H-1,2,3-triazol-1-yl}butanamide], the IC50 in experiment [1] (setting [6]) stood at 3.76 nM. Besides, the MIC in experiment [2] is more than 64 µg/mL; in experiment [3], more than 64 µg/mL; in experiment [4], 32 µg/mL (≈ 76.5 µM). The “KP-3700 (MIC)” value in experiment [5] was more than 64.0 µg/mL.
Regarding `Cc1cc(-c2cnn(CCC(C)(C(=O)NO)S(C)(=O)=O)c2)ccc1O` (stereo not shown) [Example 50, N-hydroxy-4-[4-(4-hydroxy-3-methylphenyl)-1H-pyrazol-1-yl]-2-methyl-2-(methylsulfonyl)butanamide], the IC50 in experiment [1] (setting [6]) came to 44.4 nM. The MIC in experiment [2], in experiment [3] and in experiment [4] was more than 64 µg/mL throughout. In experiment [5], the “KP-3700 (MIC)” value was more than 64.0 µg/mL.
For the compound `CC(CCn1cc(COc2cccc3ccccc23)nn1)(C(=O)NO)S(C)(=O)=O` (stereo not shown) [Example 34, N-hydroxy-2-methyl-2-(methylsulfonyl)-4-{4-[(naphthalen-1-yloxy)methyl]-1H-1,2,3-triazol-1-yl}butanamide], the IC50 in experiment [1] (setting [6]) came to 26.3 nM. For the same compound, the MIC in experiment [2], in experiment [3] and in experiment [4] was more than 64 µg/mL throughout. The “KP-3700 (MIC)” value in experiment [5] was more than 64.0 µg/mL.
With `CC(CCn1cc(CSc2ccc(Br)cc2)nn1)(C(=O)NO)S(C)(=O)=O` (stereo not shown) [Example 25, 4-(4-{[(4-bromophenyl)sulfanyl]methyl}-1H-1,2,3-triazol-1-yl)-N-hydroxy-2-methyl-2-(methylsulfonyl)butanamide], the IC50 in experiment [1] (setting [6]) is 10.1 nM.
For the compound `Cc1c(F)cccc1-c1cnn(CCC(C)(C(=O)NO)S(C)(=O)=O)c1` (stereo not shown) [Example 53, 4-[4-(3-fluoro-2-methylphenyl)-1H-pyrazol-1-yl]-N-hydroxy-2-methyl-2-(methylsulfonyl)butanamide], the IC50 in experiment [1] (setting [6]) is 9.28 nM. Also, the MIC in experiment [2] was 32 µg/mL (≈ 86.6 µM); in experiment [3], more than 64 µg/mL; in experiment [4], 16 µg/mL (≈ 43.3 µM). In addition, the “KP-3700 (MIC)” value in experiment [5] was more than 64.0 µg/mL.
Regarding `C[C@@](CCn1cnc(-c2ccccc2)c1)(C(=O)NO)S(C)(=O)=O` (stereo in doubt) [Example 13, N-hydroxy-2-methyl-2-(methylsulfonyl)-4-(4-phenyl-1H-imidazol-1-yl)butanamide], the MIC in experiment [2], in experiment [3] and in experiment [4] was more than 64 µg/mL throughout. Further, the “KP-3700 (MIC)” value in experiment [5] is more than 64.0 µg/mL.
Take `C[C@@](CCn1cc(-c2ccc(F)c(F)c2F)nn1)(C(=O)NO)S(C)(=O)=O` [Example 18, (2R)-N-hydroxy-2-methyl-2-(methylsulfonyl)-4-[4-(2,3,4-trifluorophenyl)-1H-1,2,3-triazol-1-yl]butanamide]: in experiment [1] (setting [6]), the IC50 is 3.29 nM.
The same measure, in the same setting: the value for `CC(CCn1cc(-c2cn(-c3ccc(F)cc3)cn2)cn1)(C(=O)NO)S(C)(=O)=O` (stereo not shown) [Example 89, 4-{4-[1-(4-fluorophenyl)-1H-imidazol-4-yl]-1H-pyrazol-1-yl}-N-hydroxy-2-methyl-2-(methylsulfonyl)butanamide] was more than 100 nM.
For the compound `C[C@@](CCn1cc(C2=CCCCC2)cn1)(C(=O)NO)S(C)(=O)=O` [Example 1, (2R)-4-[4-(cyclohex-1-en-1-yl)-1H-pyrazol-1-yl]-N-hydroxy-2-methyl-2-(methylsulfonyl)butanamide], the MIC in experiment [2] is 8 µg/mL (≈ 23.4 µM); in experiment [3] it was more than 64 µg/mL; in experiment [4], 1 µg/mL (≈ 2.93 µM). In addition, the “KP-3700 (MIC)” value in experiment [5] worked out at 16 µg/mL.
Turning to `C[C@@](CCn1cc(-c2ccc(-c3ncco3)cc2)cn1)(C(=O)NO)S(C)(=O)=O` [Example 12, (2R)—N-hydroxy-2-methyl-2-(methylsulfonyl)-4-{4-[4-(1,3-oxazol-2-yl)phenyl]-1H-pyrazol-1-yl}butanamide], the IC50 in experiment [1] (setting [6]) was found to be 0.963 nM.
The same measure, in the same setting: the value for `CC(CCn1cc(-c2cn(Cc3ccccc3)cn2)cn1)(C(=O)NO)S(C)(=O)=O` (stereo not shown) [Example 83, 4-[4-(1-benzyl-1H-imidazol-4-yl)-1H-pyrazol-1-yl]-N-hydroxy-2-methyl-2-(methylsulfonyl)butanamide] was more than 100 nM.
